The assay has as its system human prostate cancer cell line, 22Rv1-Enz^R. The experiment in a line: 22Rv1-Enz^R cell proliferation assay. The note with it: half maximal growth inhibition constant, 22Rv1-Enz^R cells, 6-day culture with cell media changed every 24 hours, read-out: 22Rv1-Enz^R proliferation assay GIC50. It counts as cell-based. The method, then: The human prostate cancer cell line, 22Rv1 has been reported to express a high level of AR-V7. According to one procedure, 22Rv1 is seeded at 50,000 cells/well on a 24-well plate in quadruplicate and treated with test compounds in concentrations ranging up to 20 μM for four days. Standard culture media is RPMI-1640 supplemented with 10% fetal bovine serum. The test compound initially is dissolved in DMSO at 50 mM. This stock solution is then diluted as needed for the indicated concentrations. At the end of the four-day period, cells are harvested using 1% trypsin and counted using an automated cell counter.
Selected compounds may be tested in the human prostate cancer cell line, 22Rv1-Enz^R, as described in Geun Taek Lee et al., Molecular Cancer Therapeutics, 20:490-9 (2021). These procedures are similar to that described in Experimental Example 1, above, except that the assay conditions are a 6-day culture with cell media changed every 24 hours.
In the following Table (half maximal growth inhibition constant, GIC50): (+)-GIC50<200 μM; (++)-GIC50<100 μM; (+++)-GIC50<10 μM.
As to `Cc1ncsc1-c1ccc([C@H](C)NC(=O)[C@@H]2C[C@@H](O)CN2C(=O)[C@@H](NC(=O)CCCCn2nncc2CCOc2c(-c3csc(N4CCOCC4)n3)ccc(F)c2F)C(C)(C)C)cc1` [Example 4, (2S,4R)-1-((S)-2-(5-(5-(2-(2,3-difluoro-6-(2-morpholinothiazol-4-yl)phenoxy)ethyl)-1H-1,2,3-triazol-1-yl)pentanamido)-3,3-dimethylbutanoyl)-4-hydroxy-N-((S)-1-(4-(4-methylthiazol-5-yl)phenyl)ethyl)pyrrolidine-2-carboxamide], the IC50 was < 10 µM.

Take `COc1cc(C(=O)NCCN2CCN(C(=O)COc3c(-c4csc(N5CCOCC5)n4)ccc(F)c3F)CC2)ccc1NC(=O)[C@@H]1N[C@@H](CC(C)(C)C)[C@](C#N)(c2ccc(Cl)cc2F)[C@H]1c1cccc(Cl)c1F` [Example 8, (2R,3S,4R,5S)-3-(3-chloro-2-fluorophenyl)-4-(4-chloro-2-fluorophenyl)-4-cyano-N-(4-((2-(4-(2-(2,3-difluoro-6-(2-morpholinothiazol-4-yl)phenoxy)acetyl)piperazin-1-yl)ethyl)carbamoyl)-2-methoxyphenyl)-5-neopentylpyrrolidine-2-carboxamide]: the IC50 is < 100 µM.

Take `COc1cc(C(=O)NCC2CCN(C(=O)COc3c(-c4csc(N5CCOCC5)n4)ccc(F)c3F)CC2)ccc1NC(=O)[C@@H]1N[C@@H](CC(C)(C)C)[C@](C#N)(c2ccc(Cl)cc2F)[C@H]1c1cccc(Cl)c1F` [Example 7, (2R,3S,4R,5S)-3-(3-chloro-2-fluorophenyl)-4-(4-chloro-2-fluorophenyl)-4-cyano-N-(4-(((1-(2-(2,3-difluoro-6-(2-morpholinothiazol-4-yl)phenoxy)acetyl)piperidin-4-yl)methyl)carbamoyl)-2-methoxyphenyl)-5-neopentylpyrrolidine-2-carboxamide]: the IC50 was < 200 µM.

Consider `Cc1ncsc1-c1ccc([C@H](C)NC(=O)[C@@H]2C[C@@H](O)CN2C(=O)[C@@H](NC(=O)CN2CCN(C(=O)COc3c(-c4csc(N5CCOCC5)n4)ccc(F)c3F)CC2)C(C)(C)C)cc1` [Example 1, (2S,4R)-1-((S)-2-(2-(4-(2-(2,3-difluoro-6-(2-morpholinothiazol-4-yl)phenoxy)acetyl)piperazin-1-yl)acetamido)-3,3-dimethylbutanoyl)-4-hydroxy-N-((S)-1-(4-(4-methylthiazol-5-yl)phenyl)ethyl)pyrrolidine-2-carboxamide], for which the IC50 was < 10 µM.

In the case of `COc1cc(C(=O)N2CCC(NC(=O)COc3c(-c4csc(N5CCOCC5)n4)ccc(F)c3F)CC2)ccc1NC(=O)[C@@H]1N[C@@H](CC(C)(C)C)[C@](C#N)(c2ccc(Cl)cc2F)[C@H]1c1cccc(Cl)c1F` [Example 9, (2R,3S,4R,5S)-3-(3-chloro-2-fluorophenyl)-4-(4-chloro-2-fluorophenyl)-4-cyano-N-(4-(4-(2-(2,3-difluoro-6-(2-morpholinothiazol-4-yl)phenoxy)acetamido)piperidine-1-carbonyl)-2-methoxyphenyl)-5-neopentylpyrrolidine-2-carboxamide], the IC50 is < 200 µM.

`Cc1ncsc1-c1ccc([C@H](C)NC(=O)[C@@H]2C[C@@H](O)CN2C(=O)[C@@H](NC(=O)CCN2CCN(C(=O)COc3c(-c4csc(N5CCOCC5)n4)ccc(F)c3F)CC2)C(C)(C)C)cc1` [Example 2, (2S,4R)-1-((S)-2-(3-(4-(2-(2,3-difluoro-6-(2-morpholinothiazol-4-yl)phenoxy)acetyl)piperazin-1-yl)propanamido)-3,3-dimethylbutanoyl)-4-hydroxy-N-((S)-1-(4-(4-methylthiazol-5-yl)phenyl)ethyl) pyrrolidine-2-carboxamide]: the IC50 is < 100 µM.

`Cc1ncsc1-c1ccc([C@H](C)NC(=O)[C@@H]2C[C@@H](O)CN2C(=O)[C@@H](NC(=O)CCC(=O)N[C@H]2C[C@H](Oc3c(-c4csc(N5CCOCC5)n4)ccc(F)c3F)C2)C(C)(C)C)cc1` [Example 5, N1-((1r,3S)-3-(2,3-difluoro-6-(2-morpholinothiazol-4-yl)phenoxy)cyclobutyl)-N4-((S)-1-((2S,4R)-4-hydroxy-2-(((S)-1-(4-(4-methylthiazol-5-yl)phenyl)ethyl)carbamoyl)pyrrolidin-1-yl)-3,3-dimethyl-1-oxobutan-2-yl)succinamide]: the IC50 is < 100 µM.

Turning to `Cc1ncsc1-c1ccc([C@H](C)NC(=O)[C@@H]2C[C@@H](O)CN2C(=O)[C@@H](NC(=O)CCC(=O)N2CCCC(NC(=O)COc3c(-c4csc(N5CCOCC5)n4)ccc(F)c3F)C2)C(C)(C)C)cc1` (stereo partly drawn) [Example 3, (2S,4R)-1-((2S)-2-(4-(3-(2-(2,3-difluoro-6-(2-morpholinothiazol-4-yl)phenoxy)acetamido)piperidin-1-yl)-4-oxobutanamido)-3,3-dimethylbutanoyl)-4-hydroxy-N-((S)-1-(4-(4-methylthiazol-5-yl)phenyl)ethyl)pyrrolidine-2-carboxamide], the IC50 is < 10 µM.

In the case of `COc1cc(C(=O)NCCOCCn2cc(CCOc3c(-c4csc(N5CCOCC5)n4)ccc(F)c3F)nn2)ccc1NC(=O)[C@@H]1N[C@@H](CC(C)(C)C)[C@](C#N)(c2ccc(Cl)cc2F)[C@H]1c1cccc(Cl)c1F` [Example 10, (2R,3S,4R,5S)-3-(3-chloro-2-fluorophenyl)-4-(4-chloro-2-fluorophenyl)-4-cyano-N-(4-((2-(2-(4-(2-(2,3-difluoro-6-(2-morpholinothiazol-4-yl)phenoxy)ethyl)-1H-1,2,3-triazol-1-yl)ethoxy)ethyl)carbamoyl)-2-methoxyphenyl)-5-neopentylpyrrolidine-2-carboxamide], the IC50 is < 100 µM.

These data come from patent US20240408106A1, “BI-FUNCTIONAL COMPOUNDS AND METHODS FOR TARGETED UBIQUITINATION OF ANDROGEN RECEPTOR” (MONTELINO THERAPEUTICS, INC., priority 2021, published 2024).
